Results from patent US20240025884A1 (Dong-A ST Co., Ltd., priority 2022, published 2024).

Each compound was assayed against GCN2 (Homo sapiens (Human), UniProt Q9P2K8) (assay: GCN2 Biochemical Assay (TR-FRET, GFP-eIF2S1 substrate phosphorylation)). Conditions: read-out: IC50 (GCN2 Inhibitory Activity).
How it was run: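 In-house GCN2 (1.6 nM 2× stock) phosphorylates GFP-eIF2S1 (50 nM 2× stock) with ATP (0.2 mM 2× stock) and tRNA, pH 7.5, 70 min at room temperature; 10-point 3.16-fold compound series. TR-FRET detection with Tb-anti-phospho antibody, 2–3 h, Ex 340/Em 490/520 nm; artifact plate spiked with phospho-substrate.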

Sequence of GCN2 (Q9P2K8 whole entry): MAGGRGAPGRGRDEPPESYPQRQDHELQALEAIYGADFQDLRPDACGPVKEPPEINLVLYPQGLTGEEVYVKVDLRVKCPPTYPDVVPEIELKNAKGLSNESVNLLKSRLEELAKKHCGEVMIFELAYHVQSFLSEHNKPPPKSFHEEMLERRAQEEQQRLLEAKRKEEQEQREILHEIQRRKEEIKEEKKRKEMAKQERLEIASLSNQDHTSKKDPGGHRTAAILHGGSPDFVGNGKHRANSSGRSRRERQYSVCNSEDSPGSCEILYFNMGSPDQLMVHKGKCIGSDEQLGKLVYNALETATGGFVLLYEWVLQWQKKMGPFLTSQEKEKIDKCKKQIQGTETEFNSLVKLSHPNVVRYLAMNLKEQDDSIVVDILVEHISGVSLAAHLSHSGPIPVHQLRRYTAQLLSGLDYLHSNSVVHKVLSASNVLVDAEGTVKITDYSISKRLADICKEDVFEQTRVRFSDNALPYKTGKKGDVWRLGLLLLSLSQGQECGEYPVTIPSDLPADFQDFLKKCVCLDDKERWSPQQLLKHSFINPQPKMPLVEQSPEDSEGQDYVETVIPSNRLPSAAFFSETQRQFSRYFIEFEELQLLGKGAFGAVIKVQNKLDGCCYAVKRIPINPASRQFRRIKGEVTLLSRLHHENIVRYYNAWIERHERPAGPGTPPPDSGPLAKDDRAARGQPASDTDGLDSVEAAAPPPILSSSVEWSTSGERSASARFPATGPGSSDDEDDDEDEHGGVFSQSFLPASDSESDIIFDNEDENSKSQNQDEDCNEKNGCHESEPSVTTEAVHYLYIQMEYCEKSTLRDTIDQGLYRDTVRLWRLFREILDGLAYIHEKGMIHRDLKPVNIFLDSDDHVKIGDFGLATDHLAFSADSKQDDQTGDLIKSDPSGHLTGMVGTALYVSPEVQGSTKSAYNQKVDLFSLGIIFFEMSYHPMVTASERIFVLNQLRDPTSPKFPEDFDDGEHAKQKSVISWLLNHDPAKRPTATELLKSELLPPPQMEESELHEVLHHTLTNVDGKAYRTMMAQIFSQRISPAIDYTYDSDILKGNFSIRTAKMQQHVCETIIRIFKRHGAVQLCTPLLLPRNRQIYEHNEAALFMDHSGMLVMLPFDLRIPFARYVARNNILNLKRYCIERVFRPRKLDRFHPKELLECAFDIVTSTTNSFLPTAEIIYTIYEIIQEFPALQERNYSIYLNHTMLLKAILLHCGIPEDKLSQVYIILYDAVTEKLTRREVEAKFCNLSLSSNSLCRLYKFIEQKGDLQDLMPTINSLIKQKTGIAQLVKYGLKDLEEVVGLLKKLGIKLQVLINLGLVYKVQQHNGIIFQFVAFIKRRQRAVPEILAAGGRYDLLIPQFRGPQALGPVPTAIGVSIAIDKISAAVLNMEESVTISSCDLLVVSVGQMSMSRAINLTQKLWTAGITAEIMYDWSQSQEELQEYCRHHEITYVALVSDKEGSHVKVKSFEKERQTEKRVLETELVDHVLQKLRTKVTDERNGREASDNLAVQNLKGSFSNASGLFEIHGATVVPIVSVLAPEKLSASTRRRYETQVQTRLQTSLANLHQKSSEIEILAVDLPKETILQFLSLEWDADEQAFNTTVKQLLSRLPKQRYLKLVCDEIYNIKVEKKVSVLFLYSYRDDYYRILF

IC50, < 0.01 µM:
Cc1cnc(Nc2cc(C)n(C)n2)nc1-c1c[nH]c2c(N3Cc4c(C5=CCNCC5)ccnc4C3=O)cccc12 [Example 496, 6-(3-(2-((1,5-dimethyl-1H-pyrazol-3-yl)amino)-5-methylpyrimidin-4-yl)-1H-indol-7-yl)-4-(1,2,3,6-tetrahydropyridin-4-yl)-5,6-dihydro-7H-pyrrolo[3,4-b]pyridin-7-one]
Cc1cnc(Nc2cc(C)n(C)n2)nc1-c1c[nH]c2c(N3Cc4cc(-c5ccncc5)cnc4C3=O)cccc12 [Example 497, 6-(3-(2-((1,5-dimethyl-1H-pyrazol-3-yl)amino)-5-methylpyrimidin-4-yl)-1H-indol-7-yl)-3-(pyridin-4-yl)-5,6-dihydro-7H-pyrrolo[3,4-b]pyridin-7-one]
Cc1cnc(Nc2cc(C)n(C)n2)nc1-c1c[nH]c2c(N3Cc4cc(C5=CCNCC5)cnc4C3=O)cccc12 [Example 498, 6-(3-(2-((1,5-dimethyl-1H-pyrazol-3-yl)amino)-5-methylpyrimidin-4-yl)-1H-indol-7-yl)-3-(1,2,3,6-tetrahydropyridin-4-yl)-5,6-dihydro-7H-pyrrolo[3,4-b]pyridin-7-one]
Cc1cnc(Nc2cc(C)n(C)n2)nc1-c1c[nH]c2c(N3Cc4c(cncc4C4=CCNCC4)C3=O)cccc12 [Example 499, 2-(3-(2-((1,5-dimethyl-1H-pyrazol-3-yl)amino)-5-methylpyrimidin-4-yl)-1H-indol-7-yl)-7-(1,2,3,6-tetrahydropyridin-4-yl)-1,2-dihydro-3H-pyrrolo[3,4-c]pyridin-3-one]
Cc1cnc(Nc2cc(C)n(C)n2)nc1-c1c[nH]c2c(N3Cc4c(cncc4-c4ccncc4)C3=O)cccc12 [Example 500, 2-(3-(2-((1,5-dimethyl-1H-pyrazol-3-yl)amino)-5-methylpyrimidin-4-yl)-1H-indol-7-yl)-7-(pyridin-4-yl)-1,2-dihydro-3H-pyrrolo[3,4-c]pyridin-3-one]
Cc1cnc(Nc2cc(C)n(C)n2)nc1-c1c[nH]c2c(N3Cc4c(ccnc4-c4ccncc4)C3=O)cccc12 [Example 501, 2-(3-(2-((1,5-dimethyl-1H-pyrazol-3-yl)amino)-5-methylpyrimidin-4-yl)-1H-indol-7-yl)-4-(pyridin-4-yl)-2,3-dihydro-1H-pyrrolo[3,4-c]pyridin-1-one]
Cc1cc(-c2nccc3c2CN(c2cccc4c(-c5nc(Nc6cc(C)n(C)n6)ncc5C)c[nH]c24)C3=O)ccn1 [Example 502, 2-(3-(2-((1,5-dimethyl-1H-pyrazol-3-yl)amino)-5-methylpyrimidin-4-yl)-1H-indol-7-yl)-4-(2-methylpyridin-4-yl)-2,3-dihydro-1H-pyrrolo[3,4-c]pyridin-1-one]
Cc1cnc(Nc2cc(C)n(C)n2)nc1-c1c[nH]c2c(N3Cc4c(ccnc4-c4cncc(F)c4)C3=O)cccc12 [Example 503, 2-(3-(2-((1,5-dimethyl-1H-pyrazol-3-yl)amino)-5-methylpyrimidin-4-yl)-1H-indol-7-yl)-4-(5-fluoropyridin-3-yl)-2,3-dihydro-1H-pyrrolo[3,4-c]pyridin-1-one]
Cc1cnc(Nc2cc(C)n(C)n2)nc1-c1c[nH]c2c(N3Cc4c(ccnc4-c4ccnc(F)c4)C3=O)cccc12 [Example 504, 2-(3-(2-((1,5-dimethyl-1H-pyrazol-3-yl)amino)-5-methylpyrimidin-4-yl)-1H-indol-7-yl)-4-(2-fluoropyridin-4-yl)-2,3-dihydro-1H-pyrrolo[3,4-c]pyridin-1-one]
Cc1cncc(-c2nccc3c2CN(c2cccc4c(-c5nc(Nc6cc(C)n(C)n6)ncc5C)c[nH]c24)C3=O)c1 [Example 505, 2-(3-(2-((1,5-dimethyl-1H-pyrazol-3-yl)amino)-5-methylpyrimidin-4-yl)-1H-indol-7-yl)-4-(5-methylpyridin-3-yl)-2,3-dihydro-1H-pyrrolo[3,4-c]pyridin-1-one]
Cc1cnccc1-c1nccc2c1CN(c1cccc3c(-c4nc(Nc5cc(C)n(C)n5)ncc4C)c[nH]c13)C2=O [Example 506, 2-(3-(2-((1,5-dimethyl-1H-pyrazol-3-yl)amino)-5-methylpyrimidin-4-yl)-1H-indol-7-yl)-4-(3-methylpyridin-4-yl)-2,3-dihydro-1H-pyrrolo[3,4-c]pyridin-1-one]
